Test results published in patent US20260015351A1, “METHODS AND COMPOUNDS FOR INHIBITING MKK7 ENZYMES” (AXONIS THERAPEUTICS, INC., priority 2022, published 2026).
pIC50, pKd: −log10 of the molar value.

These compounds were tested against T1, MKK7 (Homo sapiens (Human), UniProt O14733) (assay: MKK7 ADP-Glo in vitro pharmacology assay). Conditions: calculated from remaining activity (%).
Type: biochemical
Description: A study was conducted to determine the pharmacology of Compounds 1-18 in vitro in a plurality of biological matrices. Compounds 1-18 were prepared into proper concentrations of DMSO solution. The compound stock was then serially diluted into 10 concentrations by 3-fold dilution in 384 pp-plate. 5 nL of compound stock was transferred to a 384 plate. The compound stock was then diluted to 0.74 nM using a solution, which contained 0.79 mL of water, 0.2 mL of 5× Buffer, 2 μL of DTT, 6.66 μL of 7.5% BSA, and 5 μL of 10 mM ATP, to form an MKK7 mixture. The MKK7 mixture was then pre-warmed and 2.5 μL was added to each well designated for the “Test compound” and “High control” well, 2.5 μL solution 1 to each well designated for the “Low control” well. The well was incubated for 30 min and centrifuged at room temperature. Following centrifugation, 5 μL of ADD-Glo Reagent was added to each well and incubated for 60 min after centrifugation at room temperature. 10 μL of ADP-Glo Detection was then added to each well and incubated for 30 min after centrifugation in dark at room temperature. IC50 values were calculated based on the remaining activity (%) using read conversion ratio (CR).

T1 sequence (O14733 whole entry): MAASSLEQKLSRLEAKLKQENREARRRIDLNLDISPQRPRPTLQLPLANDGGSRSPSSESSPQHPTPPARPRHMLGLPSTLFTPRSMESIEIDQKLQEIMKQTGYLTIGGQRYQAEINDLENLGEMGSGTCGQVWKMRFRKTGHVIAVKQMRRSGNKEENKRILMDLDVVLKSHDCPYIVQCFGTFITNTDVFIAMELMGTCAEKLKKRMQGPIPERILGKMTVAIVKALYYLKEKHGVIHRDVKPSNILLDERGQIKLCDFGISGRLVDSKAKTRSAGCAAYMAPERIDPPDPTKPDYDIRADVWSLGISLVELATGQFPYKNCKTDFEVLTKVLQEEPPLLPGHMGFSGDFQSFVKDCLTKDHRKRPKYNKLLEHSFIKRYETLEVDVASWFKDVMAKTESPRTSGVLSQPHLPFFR

| SMILES | pIC50 |
| --- | --- |
| C=CC(=O)N1CCc2ccc(-c3n[nH]c4cnccc34)cc21 [Compound 1, 1-(6-{1H-pyrazolo[3,4-c]pyridin-3-yl}-2,3-dihydroindol-1-yl)prop-2-en-1-one] | 8.32 |
| C=CC(=O)N1CCc2c(-c3n[nH]c4ccccc34)cccc21 [Compound 2, 1-[4-(1H-indazol-3-yl)-2,3-dihydroindol-1-yl]prop-2-en-1-one] | 7.04 |
| C=CC(=O)N1CCc2ccc(-c3n[nH]c4ccncc34)cc21 [Compound 3, 1-(6-{1H-pyrazolo[4,3-c]pyridin-3-yl}-2,3-dihydroindol-1-yl)prop-2-en-1-one] | 7.52 |
| C=CC(=O)N1CCc2ccc(-c3n[nH]c4cc(C)ccc34)cc21 [Compound 4, 1-[6-(6-methyl-1H-indazol-3-yl)-2,3-dihydroindol-1-yl]prop-2-en-1-one] | 7.64 |
| N#C/C=C/C(=O)N1CCc2ccc(-c3n[nH]c4ccccc34)cc21 [Compound 5, (2E)-4-[6-(1H-indazol-3-yl)-2,3-dihydroindol-1-yl]-4-oxobut-2-enenitrile] | 7.15 |
| CN(C)C/C=C/C(=O)N1CCc2ccc(-c3n[nH]c4ccccc34)cc21 [Compound 6, (2E)-4-(dimethylamino)-1-[6-(1H-indazol-3-yl)-2,3-dihydroindol-1-yl]but-2-en-1-one] | 6.74 |
| CCOC(=O)/C=C/C(=O)N1CCc2ccc(-c3n[nH]c4ccccc34)cc21 [Compound 7, ethyl (2E)-4-[6-(1H-indazol-3-yl)-2,3-dihydroindol-1-yl]-4-oxobut-2-enoate] | 5.41 |
| C=C(F)C(=O)N1CCc2ccc(-c3n[nH]c4ccccc34)cc21 [Compound 8, 2-fluoro-1-[6-(1H-indazol-3-yl)-2,3-dihydroindol-1-yl]prop-2-en-1-one] | 6.08 |
| C/C=C/C(=O)N1CCc2ccc(-c3n[nH]c4ccccc34)cc21 [Compound 9, (2E)-1-[6-(1H-indazol-3-yl)-2,3-dihydroindol-1-yl]but-2-en-1-one] | 5.96 |
| C=CC(=O)N1CCCc2ccc(-c3n[nH]c4cnccc34)cc21 [Compound 10, 1-(7-{1H-pyrazolo[3,4-c]pyridin-3-yl}-3,4-dihydro-2H-quinolin-1-yl)prop-2-en-1-one] | 6.26 |
| C=CC(=O)N1CCCc2ccc(-c3n[nH]c4ccncc34)cc21 [Compound 11, 1-(7-{1H-pyrazolo[4,3-c]pyridin-3-yl}-3,4-dihydro-2H-quinolin-1-yl)prop-2-en-1-one] | 5.85 |
| C=CC(=O)N1CCCc2ccc(-c3n[nH]c4cc(C)ccc34)cc21 [Compound 12, 1-[7-(6-methyl-1H-indazol-3-yl)-3,4-dihydro-2H-quinolin-1-yl]prop-2-en-1-one] | 6.80 |
| C=CC(=O)N1CCOc2ccc(-c3n[nH]c4ccccc34)cc21 [Compound 13, 1-[6-(1H-indazol-3-yl)-2,3-dihydro-1,4-benzoxazin-4-yl]prop-2-en-1-one] | 6.85 |
| C=CC(=O)N1CCc2ccc(-c3n[nH]c4ccccc34)cc21 [Compound 14, 1-[6-(1H-indazol-3-yl)-2,3-dihydroindol-1-yl]prop-2-en-1-one] | 7.72 |
| C=CC(=O)N1c2cc(-c3n[nH]c4ncccc34)ccc2CC1C (stereo not drawn) [Compound 15, 1-[2-methyl-6-{1H-pyrazolo [3,4-b]pyridin-3-yl}-2,3-dihydroindol-1-yl]prop-2-en-1-one] | 6.36 |
| C=CC(=O)N1c2cc(-c3n[nH]c4ncccc34)ccc2C[C@@H]1C [Compound 15-B] | 6.80 |
| C=CS(=O)(=O)N1CCc2ccc(-c3n[nH]c4ncccc34)cc21 [Compound 16, 1-(ethenesulfonyl)-6-{1H-pyrazolo[3,4-b]pyridin-3-yl}-2,3-dihydroindole] | 8.11 |
| C=CC(=O)N1CCc2ccc(-c3n[nH]c4ncccc34)c(F)c21 [Compound 17, 1-(7-fluoro-6-{1H-pyrazolo[3,4-b]pyridin-3-yl}-2,3-dihydroindol-1-yl)prop-2-en-1-one] | 7.06 |
| C=CC(=O)N1CCc2ccc(-c3n[nH]c4cc(C#N)ccc34)cc21 [Compound 18, 3-[1-(prop-2-enoyl)-2,3-dihydroindol-6-yl]-1H-indazole-6-carbonitrile] | 8.22 |

The compounds below were run against T1, MKK7 (assay: In vitro competitive binding assay (kinase-tagged phage / qPCR)). Conditions: 11-point 3-fold dilution series; Hill slope set to -1.
Description: Kinase-tagged T7 phage strains were prepared in an E. coli host derived from the BL21 strain. E. coli were grown to log-phase and infected with T7 phage and incubated with shaking at 32° C. until lysis. The lysates were centrifuged and filtered to remove cell debris. The remaining kinases were produced in HEK-293 cells and subsequently tagged with DNA for qPCR detection. Streptavidin-coated magnetic beads were treated with biotinylated small molecule ligands for 30 minutes at room temperature to generate affinity resins for kinase assays. The liganded beads were blocked with excess biotin and washed with blocking buffer (SeaBlock (Pierce), 1% BSA, 0.05% Tween 20, 1 mM DTT) to remove unbound ligand and to reduce non-specific binding. […] Kds were determined using an 11-point 3-fold compound dilution series with three DMSO control points. […] The kinase concentration in the eluates was measured by qPCR.
An 11-point 3-fold serial dilution of each test compound was prepared in 100% DMSO at 100× final test concentration and subsequently diluted to 1× in the assay (final DMSO concentration=1%). Most Kds were determined using a compound top concentration=30,000 nM. […]
Binding constants (Kds) were calculated with a standard dose-response curve using the Hill equation: […]

| SMILES | pKd |
| --- | --- |
| C=CC(=O)N1CCc2ccc(-c3n[nH]c4cc(C)ccc34)cc21 [Compound 4, 1-[6-(6-methyl-1H-indazol-3-yl)-2,3-dihydroindol-1-yl]prop-2-en-1-one] | 8.11 |
| C=CC(=O)N1CCCc2ccc(-c3n[nH]c4cc(C)ccc34)cc21 [Compound 12, 1-[7-(6-methyl-1H-indazol-3-yl)-3,4-dihydro-2H-quinolin-1-yl]prop-2-en-1-one] | 7.15 |
